According to paper PMC9124243 (Cell chemical biology, 2021):
Where two headings read alike, the source gives them in different places.

Tests used:
Mtb DnaK-DnaJ2-GrpE = Mtb DnaK-DnaJ2-GrpE (Mycobacterium tuberculosis, UniProt P9WMJ9); test: biochemical
[1] = molecular target: mycobacterial DnaK and GrpE with DnaJ2 (Mycobacterium tuberculosis, UniProt P9WMJ9); format: biochemical; details: excess compound
human Hsc70 and DnaJA2 = human Hsc70 and DnaJA2 (Homo sapiens, UniProt P11142); test: Denatured luciferase refolding by human chaperones; format: biochemical
Mtb DnaK^FL = Mtb DnaK^FL (Mycobacterium tuberculosis, UniProt P9WMJ9); format: binding; details: FP competition
M. smegmatis (Msm) = test: Mycobacterial growth inhibition assay; format: cell-based, Mycobacterium smegmatis; details: for effect on Msm growth: wild-type Msm
[2] = molecular target: Mtb DnaK activation by DnaJ2 and GrpE (Mycobacterium tuberculosis, UniProt P9WMJ9); format: biochemical; details: for DnaJ2- and GrpE-mediated activation of DnaK: excess HCV inhibitor, DnaK 4 μM
luciferase = test: Luciferase counter-assay; format: biochemical
Msm [3] = details: below the limit of detection; ref Fay et al., 2021; cited from earlier work
proteinase K = proteinase K (Parengyodontium album, UniProt P06873); test: Hemoglobin proteolysis control for proteinase K activity; format: biochemical; details: 50 μM TP
Msm [4] = test: MIC assays for antibiotic synergy with TP; format: cell-based, Mycobacterium smegmatis; details: for improvement in MIC50: with 100 μM TP added
Msm [5] = format: cell-based, Mycobacterium smegmatis
Mtb DnaK = Mtb DnaK (Mycobacterium tuberculosis, UniProt P9WMJ9); format: biochemical; details: excess compound, DnaK without cofactors
[6] = molecular target: DnaK^SBD, residues 360-625 (Mycobacterium tuberculosis, UniProt P9WMJ9); format: binding; details: FP competition
HCV protease (NS3/4A) = details: ref Grillot et al., 2011; cited from earlier work
[7] = kinetic analysis of ATP hydrolysis by DnaK-DnaJ2-GrpE

Chain of Mtb DnaK-DnaJ2-GrpE (P9WMJ9 whole entry): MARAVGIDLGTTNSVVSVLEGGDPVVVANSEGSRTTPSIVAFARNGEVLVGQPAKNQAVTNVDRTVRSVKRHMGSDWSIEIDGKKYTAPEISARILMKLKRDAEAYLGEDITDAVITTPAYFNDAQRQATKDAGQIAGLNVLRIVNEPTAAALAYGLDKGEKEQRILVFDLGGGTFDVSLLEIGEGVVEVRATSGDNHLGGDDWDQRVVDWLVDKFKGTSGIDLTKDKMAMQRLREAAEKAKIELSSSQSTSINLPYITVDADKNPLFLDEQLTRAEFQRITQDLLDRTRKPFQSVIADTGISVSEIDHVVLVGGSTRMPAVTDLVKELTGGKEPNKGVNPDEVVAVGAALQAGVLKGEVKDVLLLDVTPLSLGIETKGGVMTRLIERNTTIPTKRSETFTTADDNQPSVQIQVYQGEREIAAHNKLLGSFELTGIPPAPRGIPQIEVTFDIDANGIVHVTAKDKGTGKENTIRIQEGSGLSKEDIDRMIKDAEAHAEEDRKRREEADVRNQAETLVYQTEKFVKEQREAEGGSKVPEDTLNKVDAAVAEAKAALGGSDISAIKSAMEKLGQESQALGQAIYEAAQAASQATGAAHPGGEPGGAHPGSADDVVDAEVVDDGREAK
Chain of Mtb DnaK activation by DnaJ2 and GrpE (P9WMJ9 whole entry): as above
Chain of human Hsc70 and DnaJA2 (P11142 whole entry): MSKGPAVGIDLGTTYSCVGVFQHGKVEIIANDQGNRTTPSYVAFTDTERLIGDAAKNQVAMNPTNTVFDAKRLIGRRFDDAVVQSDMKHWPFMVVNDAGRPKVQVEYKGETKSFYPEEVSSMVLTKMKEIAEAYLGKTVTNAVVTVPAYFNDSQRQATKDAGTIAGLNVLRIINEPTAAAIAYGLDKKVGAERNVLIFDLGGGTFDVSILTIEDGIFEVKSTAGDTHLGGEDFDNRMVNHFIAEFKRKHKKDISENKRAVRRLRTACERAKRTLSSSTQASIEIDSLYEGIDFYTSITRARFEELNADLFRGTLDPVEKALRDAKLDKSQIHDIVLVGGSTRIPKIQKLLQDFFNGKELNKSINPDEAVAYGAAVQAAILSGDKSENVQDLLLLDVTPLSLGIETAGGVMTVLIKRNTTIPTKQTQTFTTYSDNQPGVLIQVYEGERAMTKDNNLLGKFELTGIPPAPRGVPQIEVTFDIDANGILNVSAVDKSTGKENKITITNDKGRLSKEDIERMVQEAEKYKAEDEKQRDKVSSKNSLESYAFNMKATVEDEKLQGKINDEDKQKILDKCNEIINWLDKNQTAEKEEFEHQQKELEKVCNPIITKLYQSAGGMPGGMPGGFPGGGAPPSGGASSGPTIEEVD
Chain of DnaK^SBD, residues 360-625 (P9WMJ9 360-625): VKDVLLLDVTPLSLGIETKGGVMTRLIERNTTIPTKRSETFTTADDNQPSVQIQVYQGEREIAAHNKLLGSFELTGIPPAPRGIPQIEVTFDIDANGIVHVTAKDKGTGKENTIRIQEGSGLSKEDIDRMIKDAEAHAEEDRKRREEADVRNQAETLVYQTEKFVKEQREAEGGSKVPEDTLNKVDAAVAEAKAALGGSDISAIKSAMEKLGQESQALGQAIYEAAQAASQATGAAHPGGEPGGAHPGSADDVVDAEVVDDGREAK
Chain of proteinase K (P06873 106-384): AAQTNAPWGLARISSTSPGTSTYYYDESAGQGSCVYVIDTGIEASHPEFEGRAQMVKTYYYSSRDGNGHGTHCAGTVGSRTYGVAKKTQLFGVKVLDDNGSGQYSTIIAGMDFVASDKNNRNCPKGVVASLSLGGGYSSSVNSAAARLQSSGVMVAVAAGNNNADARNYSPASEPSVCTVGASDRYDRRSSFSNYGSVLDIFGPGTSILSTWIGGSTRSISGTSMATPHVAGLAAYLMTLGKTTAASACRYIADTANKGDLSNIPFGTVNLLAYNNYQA
Chain of Mtb DnaK (P9WMJ9 whole entry, the tested form may be a part): as the sequence (P9WMJ9 whole entry) above
Chain of Mtb DnaK^FL (P9WMJ9 whole entry): as above
Chain of mycobacterial DnaK and GrpE with DnaJ2 (P9WMJ9 whole entry): as above

Compound: 4BB-Val-Val-Pro-Leu-OH [Compound 3]
- inhibition of DnaK-DnaJ2-GrpE ATPase activity in dose-response assay (Mtb DnaK-DnaJ2-GrpE): no activity

Compound: 4BB-Val-Val-Pro-Leu-OMe [Compound 6]
- inhibition of DnaK-DnaJ2-GrpE ATPase activity in dose-response assay (Mtb DnaK-DnaJ2-GrpE): no activity

Compound: CC(C)(C)NC(=O)N[C@H](C(=O)N1C[C@H]2[C@@H]([C@H]1C(=O)NC(CC1CCC1)C(=O)C(N)=O)C2(C)C)C(C)(C)C (some centres unmarked) [BC, boceprevir]
- inhibition of DnaK-DnaJ2-GrpE ATPase activity in dose-response assay (Mtb DnaK-DnaJ2-GrpE; dose-response): inactive
- effect on refolding reactions [1]: only a slight effect
- inhibition of human chaperones (human Hsc70 and DnaJA2; excess compound): does not inhibit
- competition with FL-NR for binding to DnaK (Mtb DnaK^FL): no effect on binding of the probe

Compound: CNC(=O)[C@H]1O[C@@H](n2cnc3c(NCc4cccc(I)c4)nc(Cl)nc32)[C@H](O)[C@@H]1O [MECA, 2Cl-IB-MECA]
- IC50 (Mtb DnaK-DnaJ2-GrpE): ~4500 nM
- competition with ATP (Mtb DnaK-DnaJ2-GrpE; [7]): no competition with ATP
- effect on Msm growth (M. smegmatis (Msm)): only TP appears to cause growth inhibition of mycobacterial cells
- DnaJ2-mediated activation of DnaK's ATPase activity [2]: hindered
- activation of DnaK by increasing concentrations of GrpE ([2]; excess MECA, sub-stoichiometric DnaJ2): nearly abrogated
- activity against luciferase alone (luciferase): no activity

Compound: CO[C@H]1/C=C/O[C@@]2(C)Oc3c(C)c(O)c4c(O)c(c(/C=N/N5CCN(C)CC5)c(O)c4c3C2=O)NC(=O)/C(C)=C\C=C\[C@H](C)[C@H](O)[C@@H](C)[C@@H](O)[C@@H](C)[C@H](OC(C)=O)[C@@H]1C [RIF, rifampicin]
- FOR value of Msm ΔdnaJ2 cells (Msm [3]): < 10^−10

Compound: CCC[C@H](NC(=O)[C@@H]1[C@H]2CCC[C@H]2CN1C(=O)[C@@H](NC(=O)[C@@H](NC(=O)c1cnccn1)C1CCCCC1)C(C)(C)C)C(=O)C(=O)NC1CC1 [TP, Telaprevir]
- increase of the KM of DnaK (Mtb DnaK-DnaJ2-GrpE; [7]): ~ 2 fold
- concentration causing growth inhibition (M. smegmatis (Msm)): > 100 µM
- growth of Msm ΔdnaJ1 (M. smegmatis (Msm); 100 μM TP): growth defects
- effect on cleavage by proteinase K (proteinase K): did not affect cleavage by proteinase K
- DnaJ2- and GrpE-mediated activation of DnaK [2]: significantly disrupted
- effect on activity of rifampicin (Msm [4]; 100 μM TP): does not affect the activity
- refolding activity compared to DMSO alone (human Hsc70 and DnaJA2; 100 μM TP): 35%
- lowering of the FOR of RIF (Msm [5]; 100 μM TP + 240 μM RIF, Msm): about 1 log10
- FOR of Msm for RIF with TP added (Msm [5]; 240 μM RIF + 100 μM TP): ~ 10^−8
- effect on DnaK ATPase activity (Mtb DnaK): slightly inhibits
- displacement of FL-NR from DnaK^SBD [6]: displace FL-NR
- Ki (HCV protease (NS3/4A)): 44 nM
- activity against luciferase alone (luciferase): no activity

Compound: NC[C@H]1O[C@H](O[C@H]2[C@H](O)[C@@H](O[C@H]3O[C@H](CO)[C@@H](O)[C@H](N)[C@H]3O)[C@H](N)C[C@@H]2N)[C@H](O)[C@@H](O)[C@@H]1O [kanamycin]
- improvement in MIC50 (Msm [4]): ~ 2 fold

Compound: COc1ccc2c(O[C@@H]3C[C@H]4C(=O)N[C@]5(C(=O)NS(=O)(=O)C6CC6)C[C@H]5/C=C\CCCCN(C)C(=O)[C@@H]4C3)cc(-c3nc(C(C)C)cs3)nc2c1C [simeprevir]
- IC50 value relative to that of TP (Mtb DnaK-DnaJ2-GrpE; DnaK-DnaJ2-GrpE ATPase): ~ 8 fold
- inhibition of DnaK-DnaJ2-GrpE ATPase activity in dose-response assay (Mtb DnaK-DnaJ2-GrpE; dose-response): measurable inhibition
- effect on Msm growth (M. smegmatis (Msm)): did not affect Msm growth
- DnaJ2- and GrpE-mediated activation of DnaK [2]: significantly disrupted

Compound: [H]/N=C(/N)N[C@H]1[C@H](O)[C@@H](O)[C@H](O[C@@H]2O[C@@H](C)[C@](O)(C=O)[C@H]2O[C@@H]2O[C@@H](CO)[C@H](O)[C@@H](O)[C@@H]2NC)[C@@H](N/C(N)=N\[H])[C@@H]1O [streptomycin]
- improvement in MIC50 (Msm [4]): ~4 fold
